Measured values reported in ChEMBL document CHEMBL1201862, “PubChem BioAssay data set” (2004).
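Cultured in 96-well plates, cells were exposed to test compound for 48 hours across five concentrations. GI50: concentration for 50% inhibition of growth.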 Activity calls are given as the source filed them. No stated cut-off is given here; in the data, active = GI50 up to about 1.1 µM and inactive = higher.

Legend:
Test in all cases: NCI-60 cell line screen, 48 h
EKVX = test system: EKVX
SF-539 = test system: SF-539
TK-10 = test system: TK-10
MDA-MB-231 = test system: MDA-MB-231
MDA-N = test system: MDA-N
SN12C = test system: SN12C
IGROV-1 = test system: IGROV-1
OVCAR-4 = test system: OVCAR-4
Hs-578T = test system: Hs-578T
CCRF-CEM = test system: CCRF-CEM
NCI/ADR-RES = test system: NCI/ADR-RES
SF-268 = test system: SF-268
OVCAR-3 = test system: OVCAR-3
HOP-92 = test system: HOP-92
HOP-62 = test system: HOP-62
NCI-H460 = test system: NCI-H460
HT-29 = test system: HT-29
RXF 393 = test system: RXF 393
HCT-15 = test system: HCT-15
OVCAR-5 = test system: OVCAR-5

Compound | GI50 (EKVX) | GI50 (SF-539) | GI50 (TK-10) | GI50 (MDA-MB-231) | GI50 (MDA-N) | GI50 (SN12C) | GI50 (IGROV-1) | GI50 (OVCAR-4) | GI50 (Hs-578T) | GI50 (CCRF-CEM) | GI50 (NCI/ADR-RES) | GI50 (SF-268) | GI50 (OVCAR-3) | GI50 (HOP-92) | GI50 (HOP-62) | GI50 (NCI-H460) | GI50 (HT-29) | GI50 (RXF 393) | GI50 (HCT-15) [µM] | GI50 (OVCAR-5)
CN(N=O)C(=O)NNC(=O)N(C)N=O | 29.2 µM (inactive) | 49.1 µM (inactive) | > 100 µM (inactive) | > 100 µM (inactive) | > 100 µM (inactive) | > 100 µM (inactive) | 65.8 µM (inactive) | > 100 µM (inactive) | > 100 µM (inactive) | 31.7 µM (inactive) | > 100 µM (inactive) | 38.9 µM (inactive) | > 100 µM (inactive) | 47.1 µM (inactive) | > 100 µM (inactive) | 42.4 µM (inactive) | > 100 µM (inactive) | 26.8 µM (inactive) | 37.9 | > 100 µM (inactive)
C=C(C(=O)OC)c1cc2ccccc2n1S(=O)(=O)c1ccccc1 | 12.1 µM (inactive) | 1.62 µM (inactive) | 1.57 µM (inactive) | 1.98 µM (inactive) | 2.7 µM (inactive) | 2.67 µM (inactive) | 1.55 µM (inactive) | 4.82 µM (inactive) | 4.11 µM (inactive) | 1.24 µM (inactive) | 3.37 µM (inactive) | 1.84 µM (inactive) | 3.4 µM (inactive) | 0.927 µM (active) | 3.43 µM (inactive) | 2.21 µM (inactive) | 2.91 µM (inactive) | 0.792 µM (active) | 1.76 | 5.68 µM (inactive)
O=[N+]([O-])c1cccc(/C=N/NC2=CS(=O)(=O)C=C2)c1 | > 100 µM (inactive) | > 100 µM (inactive) | > 100 µM (inactive) | > 100 µM (inactive) | > 100 µM (inactive) | > 100 µM (inactive) | > 100 µM (inactive) | > 100 µM (inactive) | > 100 µM (inactive) | > 100 µM (inactive) | > 100 µM (inactive) | > 100 µM (inactive) | > 100 µM (inactive) | > 100 µM (inactive) | > 100 µM (inactive) | > 100 µM (inactive) | > 100 µM (inactive) | > 100 µM (inactive) | > 100 | > 100 µM (inactive)
CC(C)N(C(C)C)S(=O)(=O)C[C@]12CC[C@H](CC13OCC(CS(=O)(=O)c1ccccc1)O3)C2(C)C (stereo not given in full) | 39.3 µM (inactive) | 44.8 µM (inactive) | 44.9 µM (inactive) | > 100 µM (inactive) | 51.4 µM (inactive) | 47.8 µM (inactive) | > 28.7 µM (inactive) | 40.8 µM (inactive) | 94.4 µM (inactive) | 32.1 µM (inactive) | 41.9 µM (inactive) | 59.2 µM (inactive) | 31.3 µM (inactive) | > 24.3 µM (inactive) | > 51.2 µM (inactive) | 39.2 µM (inactive) | 33.4 µM (inactive) | 49 µM (inactive) | 47 | > 76.4 µM (inactive)
C[n+]1c(-c2ccc(NC(=O)c3ccc(C(=O)Nc4ccc(-c5cn6ccccc6[n+]5C)cc4)cc3)cc2)cn2ccccc21 | > 100 µM (inactive) | > 70.5 µM (inactive) | > 100 µM (inactive) | > 42.9 µM (inactive) | > 69.8 µM (inactive) | > 66.1 µM (inactive) | > 66.5 µM (inactive) | > 100 µM (inactive) | > 100 µM (inactive) | > 65.6 µM (inactive) | > 100 µM (inactive) | > 100 µM (inactive) | > 100 µM (inactive) | > 100 µM (inactive) | > 100 µM (inactive) | > 100 µM (inactive) | > 100 µM (inactive) | 39.6 µM (inactive) | > 100 | > 100 µM (inactive)
COc1ccc(-c2cc(=O)c3c(OC)c(OC)c(OC)cc3o2)cc1 | 37.4 µM (inactive) | 81.8 µM (inactive) | 36 µM (inactive) | 43.8 µM (inactive) | 40.6 µM (inactive) | 25.2 µM (inactive) | 37.9 µM (inactive) | 24.2 µM (inactive) | 35.6 µM (inactive) | 14 µM (inactive) | 28.2 µM (inactive) | 31.1 µM (inactive) | 26.8 µM (inactive) | 20.6 µM (inactive) | 21.1 µM (inactive) | 24 µM (inactive) | 28.4 µM (inactive) | 30.1 µM (inactive) | 32.7 | 44 µM (inactive)
COc1ccc2c(=O)c3ccoc3n(CC=C(C)C)c2c1 [ACROPHYLLINE] | 43.9 µM (inactive) | 97.1 µM (inactive) | > 100 µM (inactive) | 72.9 µM (inactive) | 73.8 µM (inactive) | > 100 µM (inactive) | 74.5 µM (inactive) | 44.7 µM (inactive) | 31.3 µM (inactive) | 39.4 µM (inactive) | 18.8 µM (inactive) | 78.2 µM (inactive) | 85.7 µM (inactive) | > 26.2 µM (inactive) | > 79.1 µM (inactive) | 50.2 µM (inactive) | 47.2 µM (inactive) | 28.5 µM (inactive) | 35.6 | > 100 µM (inactive)
